Sander's compilation of Henry's law constants (doi:10.1016/0045-6535(85)90029-3)

Test: Henry solubility constant Hcp at 298.15 K (mol/(m3 Pa))
Conditions: reference: Oliver (1985)

| SMILES | Henry solubility constant Hcp |
| --- | --- |
| Clc1cccc(Cl)c1Cl [1,2,3-trichlorobenzene] | 0.011 |
| Cc1c(Cl)c(Cl)c(Cl)c(Cl)c1Cl [pentachloromethylbenzene] | 0.013 |
| Clc1cc(Cl)c(Cl)cc1Cl [1,2,4,5-tetrachlorobenzene] | 0.0099 |
| Clc1cc(Cl)c(-c2cc(Cl)c(Cl)cc2Cl)cc1Cl [2,2',4,4',5,5'-hexachlorobiphenyl] | 0.16 |
| ClC(Cl)=C(Cl)c1c(Cl)c(Cl)c(Cl)c(Cl)c1Cl [octachlorostyrene] | 0.076 |
| Clc1ccc(Cl)c(-c2ccccc2Cl)c1 [2,2',5-trichlorobiphenyl] | 0.049 |
| Cc1cc(Cl)c(Cl)cc1Cl [2,4,5-trichloromethylbenzene] | 0.0066 |
| Clc1ccc(Cl)cc1 [1,4-dichlorobenzene] | 0.0066 |
| Clc1cccc(-c2cccc(Cl)c2Cl)c1Cl [2,2',3,3'-tetrachlorobiphenyl] | 0.082 |
| Clc1cc(Cl)cc(Cl)c1 [1,3,5-trichlorobenzene] | 0.0052 |
| ClC(Cl)=C(Cl)C(Cl)=C(Cl)Cl [hexachlorobutadiene] | 0.0023 |
| Clc1cccc(Cl)c1 [1,3-dichlorobenzene] | 0.0055 |
| Clc1ccc(Cl)c(-c2cc(Cl)ccc2Cl)c1 [2,2',5,5'-tetrachlorobiphenyl] | 0.082 |
| Clc1ccc(Cl)c(-c2cc(Cl)c(Cl)cc2Cl)c1 [2,2',4,5,5'-pentachlorobiphenyl] | 0.14 |
| Cc1c(Cl)ccc(Cl)c1Cl [2,3,6-trichloromethylbenzene] | 0.0066 |
